From BindingDB's records for doi:10.1021/jm0702377 (University of Liverpool, 2007)

biological target: T1, Alpha-methylacyl-CoA racemase (Rattus norvegicus, UniProt P70473); assay: AMACR Inhibition Assay; conditions: pH 7; 37 °C
T1 sequence (P70473 whole entry): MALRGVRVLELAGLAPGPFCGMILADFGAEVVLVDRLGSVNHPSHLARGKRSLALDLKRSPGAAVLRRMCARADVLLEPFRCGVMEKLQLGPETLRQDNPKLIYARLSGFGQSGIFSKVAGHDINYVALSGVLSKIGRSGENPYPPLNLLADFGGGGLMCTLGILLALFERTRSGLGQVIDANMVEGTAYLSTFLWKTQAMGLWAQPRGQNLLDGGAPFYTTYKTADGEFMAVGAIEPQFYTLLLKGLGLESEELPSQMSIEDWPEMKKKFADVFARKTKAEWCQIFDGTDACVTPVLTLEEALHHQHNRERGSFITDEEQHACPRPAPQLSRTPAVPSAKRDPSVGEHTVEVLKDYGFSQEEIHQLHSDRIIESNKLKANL
Protocol: AMACR activity was determined by monitoring the interconversion of the (25R/S)-isomer of THC-CoA. Reaction product was analyzed by resolution of (25S)-or (25R)-THC-CoA using HPLC, which was carried out with a reversed-phase C18-column and a linear gradient of methanol in potassium phosphate buffer (50 mM, pH 5.3). Kinetic parameters were determined using direct linear plot analysis.

| Compound | Ki [µM] |
| --- | --- |
| CCCCCCC(C)C(=O)SCCNC(=O)CCNC(=O)C(O)C(C)(C)COP(=O)(O)OP(=O)(O)OC[C@H]1O[C@@H](n2cnc3c(N)ncnc32)[C@H](O)[C@@H]1OP(=O)(O)O (stereo partly drawn) [{[(2R,3S,4R,5R)-5-(6-amino-9H-purin-9-yl)-4-hydroxy-2-({[hydroxy({[hydroxy(3-hydroxy-2,2-dimethyl-3-{[2-({2-[(2-methyloctanoyl)sulfanyl]ethyl}carbamoyl)ethyl]carbamoyl}propoxy)phosphoryl]oxy})phosphoryl]oxy}methyl)oxolan-3-yl]oxy}phosphonic acid] | 45 |
| C[C@@H](CC[C@H](F)[C@@H](C)C(=O)SCCNC(=O)CCNC(=O)C(O)C(C)(C)COP(=O)(O)OP(=O)(O)OC[C@H]1O[C@@H](n2cnc3c(N)ncnc32)[C@H](O)[C@@H]1OP(=O)(O)O)[C@H]1CC[C@H]2[C@@H]3[C@H](O)C[C@@H]4C[C@H](O)CC[C@]4(C)[C@H]3C[C@H](O)[C@]12C (some centres not stated) [THC-CoA Analogue, 7] | 3.8 |
| CCCCCCCCCCCCC[C@@H](F)[C@H](C)C(=O)SCCNC(=O)CCNC(=O)C(O)C(C)(C)COP(=O)(O)OP(=O)(O)OC[C@H]1O[C@@H](n2cnc3c(N)ncnc32)[C@H](O)[C@@H]1OP(=O)(O)O (stereo partly drawn) [(2S,3R)-3-fluoro-2-methylhexadecanoyl-CoA, 6] | 2.3 |
| CCCCCCCCCCCCC(C)C(=O)SCCNC(=O)CCNC(=O)C(O)C(C)(C)COP(=O)(O)OP(=O)(O)OC[C@H]1O[C@@H](n2cnc3c(N)ncnc32)[C@H](O)[C@@H]1OP(=O)(O)O (some centres not stated) [2-methylmyristoyl CoA, 22] | 137 |
| CCCCCCCCCCCCCC(C(=O)SCCNC(=O)CCNC(=O)C(O)C(C)(C)COP(=O)(O)OP(=O)(O)OC[C@H]1O[C@@H](n2cnc3c(N)ncnc32)[C@H](O)[C@@H]1OP(=O)(O)O)C(F)F (some centres not stated) [2-Difluoromethylpentadecanoyl-CoA, 4] | 20 |

These reach a lower Ki. Values come first.

| Ki [µM] | Compound |
| --- | --- |
| 1.3 | CCCCCCCCCCCCC[C@H](F)[C@@H](C)C(=O)SCCNC(=O)CCNC(=O)C(O)C(C)(C)COP(=O)(O)OP(=O)(O)OC[C@H]1O[C@@H](n2cnc3c(N)ncnc32)[C@H](O)[C@@H]1OP(=O)(O)O (stereo partly drawn) [((2R,3S)-3-Fluoro-2-methylhexadecanoyl-CoA, 5] |
| 0.9 | CCCCCCCCCCCCC(C(=O)SCCNC(=O)CCNC(=O)C(O)C(C)(C)COP(=O)(O)OP(=O)(O)OC[C@H]1O[C@@H](n2cnc3c(N)ncnc32)[C@H](O)[C@@H]1OP(=O)(O)O)C(F)(F)F (some centres not stated) [2-Trifluoromethyltetradecanoyl-CoA, 3] |
